{"source": "ChEMBL document CHEMBL1764991", "about": "“Epiafzelechin from the root bark of Cassia sieberiana: detection by DART mass spectrometry, spectroscopic characterization, and antioxidant properties” (J Nat Prod, 2011)", "key": {"[1]": {"experiment": "Antioxidant activity assessed as ferric ion reducing activity using fe3+-TPTZ at 20 ug/ml by FRAP assay", "type": "functional"}, "Liver [2]": {"tested_on": "Liver", "experiment": "Inhibition of H2O2-induced lipid peroxidation in rat liver homogenates assessed as malondialdehyde level at 80 ug/ml after 4 hrs", "type": "functional, tissue-based"}, "Liver [3]": {"tested_on": "Liver", "experiment": "Inhibition of H2O2-induced lipid peroxidation in rat liver homogenates assessed as malondialdehyde level after 4 hrs", "type": "functional, tissue-based"}, "[4]": {"tested_on": "Radical scavenging activity", "experiment": "Antioxidant activity assessed as DPPH radical scavenging activity", "type": "functional"}, "[5]": {"experiment": "Antioxidant activity assessed as ferric ion reducing activity using fe3+-TPTZ at 40 ug/ml by FRAP assay", "type": "functional"}, "[6]": {"experiment": "Antioxidant activity assessed as ferric ion reducing activity using fe3+-TPTZ at 80 ug/ml by FRAP assay", "type": "functional"}, "Liver [7]": {"tested_on": "Liver", "experiment": "Inhibition of H2O2-induced lipid peroxidation in rat liver homogenates assessed as malondialdehyde level at 32 ug/ml after 4 hrs", "type": "functional, tissue-based"}}, "data": [{"smiles": "Oc1ccc([C@H]2Oc3cc(O)cc(O)c3C[C@H]2O)cc1", "note": "[EPIAFZELECHIN (2R,3R)(-)]", "values": [{"measurement": "Activity", "setting": "[1]", "value": 493, "unit": "µM/L"}, {"measurement": "inhibition", "setting": "Liver [2]", "value": 81.8, "unit": "%"}, {"measurement": "Activity", "setting": "Liver [3]", "value": 14.4, "unit": "nM/ml"}, {"measurement": "IC50", "setting": "[4]", "value": 9.25, "unit": "µg/mL"}, {"measurement": "Activity", "setting": "[5]", "value": 978, "unit": "µM/L"}, {"measurement": "Activity", "setting": "[6]", "value": 1510, "unit": "µM/L"}]}, {"smiles": "O=c1c(O)c(-c2ccc(O)c(O)c2)oc2cc(O)cc(O)c12", "note": "[QUERCETIN]", "values": [{"measurement": "Activity", "setting": "Liver [3]", "value": 19.4, "unit": "nM/ml"}, {"measurement": "inhibition", "setting": "Liver [7]", "value": 75.4, "unit": "%"}, {"measurement": "IC50", "setting": "[4]", "value": 23.53, "unit": "µg/mL"}]}]}
